Measured values taken from ChEMBL document CHEMBL3046389, “Synthesis and biological evaluation of novel hydroquinone dimethyl ethers as potential anticancer and antimicrobial agents” (2013).

Legend:
Type in all cases: functional
UACC-257 = experiment: Anticancer activity against Homo sapiens (human) UACC257 cells after 48 hr by SRB assay; settings: UACC-257, 48 h
NCI-H23 [1] = experiment: Growth inhibition of Homo sapiens (human) NCI-H23 cells at 10 uM after 48 hr by SRB assay; settings: NCI-H23, 48 h, read-out: GI
UO-31 = experiment: Anticancer activity against Homo sapiens (human) UO31 cells after 48 hr by SRB assay; settings: UO-31, 48 h
CAKI-1 = experiment: Anticancer activity against Homo sapiens (human) CAKI-1 cells after 48 hr by SRB assay; settings: CAKI-1, 48 h
HCT-15 [2] = experiment: Growth inhibition of Homo sapiens (human) HCT15 cells at 10 uM after 48 hr by SRB assay; settings: HCT-15, 48 h, read-out: GI
NCI-H23 [3] = experiment: Anticancer activity against Homo sapiens (human) NCI-H23 cells after 48 hr by SRB assay; settings: NCI-H23, 48 h
HCT-15 [4] = experiment: Anticancer activity against Homo sapiens (human) HCT15 cells after 48 hr by SRB assay; settings: HCT-15, 48 h
M14 = experiment: Anticancer activity against Homo sapiens (human) M14 cells after 48 hr by SRB assay; settings: M14, 48 h
LOX IMVI = experiment: Anticancer activity against Homo sapiens (human) LOXIMVI cells after 48 hr by SRB assay
Malme-3M [5] = experiment: Growth inhibition of Homo sapiens (human) MALME-3M cells at 10 uM after 48 hr by SRB assay; settings: read-out: GI
Malme-3M [6] = experiment: Anticancer activity against Homo sapiens (human) MALME-3M cells after 48 hr by SRB assay
K562 = experiment: Growth inhibition of Homo sapiens (human) K562 cells at 10 uM after 48 hr by SRB assay; settings: K562, 48 h, read-out: GI
HCT-116 = experiment: Growth inhibition of Homo sapiens (human) HCT116 cells at 10 uM after 48 hr by SRB assay; settings: HCT-116, 48 h, read-out: GI
HL-60(TB) = experiment: Growth inhibition of Homo sapiens (human) HL-60(TB) cells at 10 uM after 48 hr by SRB assay; settings: HL-60, 48 h, read-out: GI
MOLT-4 = experiment: Growth inhibition of Homo sapiens (human) MOLT4 cells at 10 uM after 48 hr by SRB assay; settings: MOLT-4, 48 h, read-out: GI
PC-3 = experiment: Anticancer activity against Homo sapiens (human) PC3 cells after 48 hr by SRB assay; settings: PC-3, 48 h
HOP-62 = experiment: Anticancer activity against Homo sapiens (human) HOP62 cells after 48 hr by SRB assay; settings: HOP-62, 48 h
HOP-92 = experiment: Anticancer activity against Homo sapiens (human) HOP92 cells after 48 hr by SRB assay; settings: HOP-92, 48 h
SW-620 = experiment: Anticancer activity against Homo sapiens (human) SW620 cells after 48 hr by SRB assay; settings: SW-620, 48 h
SR = experiment: Anticancer activity against Homo sapiens (human) SR cells after 48 hr by SRB assay
U-251 = experiment: Growth inhibition of Homo sapiens (human) U251 cells at 10 uM after 48 hr by SRB assay; settings: U-251, 48 h, read-out: GI
NCI-H322M = experiment: Anticancer activity against Homo sapiens (human) NCI-H322M cells after 48 hr by SRB assay
786-0 = experiment: Anticancer activity against Homo sapiens (human) 786-0 cells after 48 hr by SRB assay; settings: 786-0, 48 h
SK-MEL-5 = experiment: Anticancer activity against Homo sapiens (human) SK-MEL-5 cells after 48 hr by SRB assay; settings: SK-MEL-5, 48 h
HCC 2998 = experiment: Anticancer activity against Homo sapiens (human) HCC2998 cells after 48 hr by SRB assay; settings: HCC 2998, 48 h
UACC-62 = experiment: Anticancer activity against Homo sapiens (human) UACC62 cells after 48 hr by SRB assay; settings: UACC-62, 48 h
HT-29 = experiment: Anticancer activity against Homo sapiens (human) HT-29 cells after 48 hr by SRB assay; settings: HT-29, 48 h
SK-MEL-28 = experiment: Anticancer activity against Homo sapiens (human) SK-MEL-28 cells after 48 hr by SRB assay; settings: SK-MEL-28, 48 h
[7] = read-out: LC50 (the source's name)

COc1ccc(OC)c(/C=C/c2nnc(S)n2-c2ccc(Cl)cc2)c1
GI50 (UACC-257): > 100 µM | LC50 (50% lethal concentration) (UACC-257): > 100 µM | TGI (UACC-257): > 100 µM | inhibition of growth at 10 µM (NCI-H23 [1]): 51.3% | GI50 (UO-31): 2.25 µM | LC50 (50% lethal concentration) (UO-31): > 100 µM | GI50 (CAKI-1): 2.8 µM | CC50 (CAKI-1; [7]): > 100 µM | inhibition of growth at 10 µM (HCT-15 [2]): 58.8% | GI50 (NCI-H23 [3]): 5.88 µM | TGI (NCI-H23 [3]): > 100 µM | CC50 (NCI-H23 [3]; [7]): > 100 µM | GI50 (HCT-15 [4]): 4.39 µM | TGI (HCT-15 [4]): > 100 µM | CC50 (HCT-15 [4]; [7]): > 100 µM | GI50 (M14): 4.24 µM | LC50 (M14): > 100 µM | TGI (M14): > 100 µM | GI50 (LOX IMVI): 5.02 µM | TGI (LOX IMVI): > 100 µM | CC50 (LOX IMVI; [7]): > 100 µM | inhibition of growth at 10 µM (Malme-3M [5]): 70.2% | GI50 (Malme-3M [6]): 70.6 µM | TGI (Malme-3M [6]): > 100 µM | CC50 (Malme-3M [6]; [7]): > 100 µM | inhibition of growth at 10 µM (K562): 77.6% | inhibition of growth at 10 µM (HCT-116): 70.4% | inhibition of growth at 10 µM (HL-60(TB)): 95.7% | inhibition of growth at 10 µM (MOLT-4): 47.2% | GI50 (PC-3): 8.91 µM | TGI (PC-3): > 100 µM | CC50 (PC-3; [7]): > 100 µM | GI50 (HOP-62): 6.48 µM | TGI (HOP-62): > 100 µM | CC50 (HOP-62; [7]): > 100 µM | GI50 (HOP-92): 3.56 µM | TGI (HOP-92): > 100 µM | CC50 (HOP-92; [7]): > 100 µM | GI50 (SW-620): 5.09 µM | TGI (SW-620): > 100 µM | CC50 (SW-620; [7]): > 100 µM | GI50 (SR): 4.56 µM | TGI (SR): > 100 µM | CC50 (SR; [7]): > 100 µM | inhibition of growth at 10 µM (U-251): 46.7% | GI50 (NCI-H322M): 26.9 µM | TGI (NCI-H322M): > 100 µM | CC50 (NCI-H322M; [7]): > 100 µM | GI50 (786-0): 7.17 µM | TGI (786-0): > 100 µM | CC50 (786-0; [7]): > 100 µM | GI50 (SK-MEL-5): 3.58 µM | LC50 (SK-MEL-5): > 100 µM | TGI (SK-MEL-5): > 100 µM | GI50 (HCC 2998): 13.3 µM | TGI (HCC 2998): > 100 µM | CC50 (HCC 2998; [7]): > 100 µM | GI50 (UACC-62): 3.11 µM | LC50 (UACC-62): > 100 µM | TGI (UACC-62): > 100 µM | GI50 (HT-29): 3.67 µM | TGI (HT-29): > 100 µM | CC50 (HT-29; [7]): > 100 µM | GI50 (SK-MEL-28): 11.1 µM | LC50 (concentration killing 50% of cells) (SK-MEL-28): > 100 µM | TGI (SK-MEL-28): > 100 µM
